Patent US20240025906A1 (NEURON23, INC., priority 2022, published 2024)

What was measured:
[1] = tested on: JAK1/TYK2 pSTAT5 (Tyr694/699) in THP-1 cell line; test: IFNa-stimulated JAK1/TYK2 pSTAT5 (Tyr694/699) inhibition cellular assay, AlphaLISA; format: cell-based; settings: Homo sapiens; THP-1 cells, IFNa-stimulated, AlphaLISA (Assay B); read-out: Cellular_THP1_IFNa-pSTATS_TYK2
In short: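 Compound dilutions were dispensed first, and HBSS-suspended THP-1 cells were added on top (final top concentration 10000 nM, 6-fold series). After 1 h at 37 °C, IFNa (100 ng/mL as added) was applied for 30 min. Cells were then lysed and pSTAT5 was quantified by AlphaLISA.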

TYK2 JH2 = target: T1, TYK2 JH2 (Homo sapiens, UniProt P29597); test: TYK2 JH2 binding assay (KINOMEscan KdELECT competitive binding); settings: TYK2 JH2 domain, KINOMEscan KdELECT (Assay A); read-out: Biochemical TYK2_DiscoverX_JH2_BND_Kd
T1 construct: purchased DiscoverX (KINOMEscan KdELECT service); host or cells: E. coli BL21-derived (T7 phage display) or HEK-293
In short: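 JH2-domain fragment, expressed as T7 phage tag in BL21-derived E. coli or DNA-tagged from HEK-293, competed with test compound against bead-immobilized biotinylated ligand in binding buffer (0.9% DMSO). 1 h shaking at room temperature; bound kinase eluted with 0.5 μM free ligand and quantified by qPCR. Kd from 11-point 3-fold dilutions.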

T1 sequence (P29597 589-875 limits assumed): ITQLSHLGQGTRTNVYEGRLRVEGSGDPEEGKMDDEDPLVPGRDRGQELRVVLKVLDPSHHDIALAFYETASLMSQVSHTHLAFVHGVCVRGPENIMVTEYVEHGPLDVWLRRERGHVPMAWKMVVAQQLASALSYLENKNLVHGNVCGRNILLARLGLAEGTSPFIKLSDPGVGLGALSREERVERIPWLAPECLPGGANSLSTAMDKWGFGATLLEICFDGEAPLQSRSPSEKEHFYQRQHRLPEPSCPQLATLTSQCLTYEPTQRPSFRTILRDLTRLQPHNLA

IC50 [1]	Kd (TYK2 JH2)	Structure (SMILES)
≤ 500 nM	≤ 100 nM	CNc1ncc(C#Cc2ccc(N3CC4CN(C)CC(C3)O4)cc2)c2cc(NC(=O)C3CC3)ncc12 [Example 734, N-(5-((4-(7-methyl-9-oxa-3,7-diazabicyclo[3.3.1]nonan-3-yl)phenyl)ethynyl)-8-(methylamino)-2,7-naphthyridin-3-yl)cyclopropanecarboxamide]
≤ 500 nM	≤ 100 nM	CNc1ncc(C#Cc2ccc(OC3CN(C(C)=O)C3)cn2)c2cc(NC(=O)C3CC3)ncc12 [Example 735, N-(5-((5-((1-acetylazetidin-3-yl)oxy)pyridin-2-yl)ethynyl)-8-(methylamino)-2,7-naphthyridin-3-yl)cyclopropanecarboxamide]
≤ 500 nM	≤ 100 nM	CNc1ncc(C#Cc2ccc(OC3CN(C(C)=O)C3)cn2)c2cc(NC(=O)C3(F)CC3)ncc12 [Example 736, N-(5-((5-((1-acetylazetidin-3-yl)oxy)pyridin-2-yl)ethynyl)-8-(methylamino)-2,7-naphthyridin-3-yl)-1-fluorocyclopropane-1-carboxamide]
≤ 500 nM	≤ 100 nM	CNc1ncc(C#Cc2ccc(NC(=O)COC)cc2)c2cc(NC(=O)C3CC3)ncc12 [Example 737, N-(5-((4-(2-methoxyacetamido)phenyl)ethynyl)-8-(methylamino)-2,7-naphthyridin-3-yl)cyclopropanecarboxamide]
≤ 500 nM	≤ 100 nM	CNc1ncc(C#Cc2ccc(P(C)(C)=O)cn2)c2cc(NC(=O)C3CC3)ncc12 [Example 738, N-(5-((5-(dimethylphosphoryl)pyridin-2-yl)ethynyl)-8-(methylamino)-2,7-naphthyridin-3-yl)cyclopropanecarboxamide]
≤ 500 nM	≤ 100 nM	CNc1ncc(C#Cc2ccc3nc(C(F)F)n(C)c3c2)c2cc(NC(=O)C3CC3)ncc12 [Example 739, N-(5-((2-(difluoromethyl)-1-methyl-1H-benzo[d]imidazol-6-yl)ethynyl)-8-(methylamino)-2,7-naphthyridin-3-yl)cyclopropanecarboxamide]
≤ 500 nM	≤ 100 nM	CNc1ncc(C#Cc2ccc3nc(C4CC4)n(C)c3c2)c2cc(NC(=O)C3CC3)ncc12 [Example 740, N-(5-((2-cyclopropyl-1-methyl-1H-benzo[d]imidazol-6-yl)ethynyl)-8-(methylamino)-2,7-naphthyridin-3-yl)cyclopropanecarboxamide]
≤ 500 nM	≤ 100 nM	CNc1ncc(C#Cc2ccc(OC[C@H]3COCCO3)cc2)c2cc(NC(=O)C3CC3)ncc12 [Example 741, (R)—N-(5-((4-((1,4-dioxan-2-yl)methoxy)phenyl)ethynyl)-8-(methylamino)-2,7-naphthyridin-3-yl)cyclopropanecarboxamide]
≤ 500 nM	≤ 100 nM	CNc1ncc(C#Cc2ccc(OC)cn2)c2cc(NC(=O)[C@H]3C[C@H]3C)ncc12 [Example 742, (1S,2R)—N-(5-((5-methoxypyridin-2-yl)ethynyl)-8-(methylamino)-2,7-naphthyridin-3-yl)-2-methylcyclopropane-1-carboxamide]
≤ 500 nM	≤ 100 nM	CNc1ncc(C#Cc2ccc(OC)cn2)c2cc(NC(=O)C3(F)CC3)ncc12 [Example 743, 1-fluoro-N-(5-((5-methoxypyridin-2-yl)ethynyl)-8-(methylamino)-2,7-naphthyridin-3-yl)cyclopropane-1-carboxamide]
≤ 500 nM	≤ 100 nM	CNc1ncc(C#Cc2ccc(OC)cn2)c2cc(NC(=O)C3CC3C(F)F)ncc12 [Example 744, (1R,18)-2-(difluoromethyl)-N-(5-((5-methoxypyridin-2-yl)ethynyl)-8-(methylamino)-2,7-naphthyridin-3-yl)cyclopropane-1-carboxamide]
≤ 500 nM	≤ 100 nM	CNc1ncc(C#Cc2ccc3c(C)noc3c2)c2cc(NC(=O)C3CC3)ncc12 [Example 748, N-(8-(methylamino)-5-((3-methylbenzo[d]isoxazol-6-yl)ethynyl)-2,7-naphthyridin-3-yl)cyclopropanecarboxamide]
≤ 500 nM	≤ 100 nM	CNc1ncc(C#Cc2ccc(C(C)=O)c(O)c2)c2cc(NC(=O)C3CC3)ncc12 [Example 749, N-(5-((4-acetyl-3-hydroxyphenyl)ethynyl)-8-(methylamino)-2,7-naphthyridin-3-yl)cyclopropanecarboxamide]
≤ 500 nM	≤ 100 nM	CCNc1ncc(C#Cc2ccc3nc4n(c3c2)CCOC4)c2cc(NC(=O)C3CC3)ncc12 [Example 750, N-(5-((3,4-dihydro-1H-benzo[4,5]imidazo[2,1-c][1,4]oxazin-7-yl)ethynyl)-8-(ethylamino)-2,7-naphthyridin-3-yl)cyclopropanecarboxamide]
≤ 500 nM	≤ 100 nM	CNc1ncc(C#Cc2ccc3nnn(C)c3c2)c2cc(Nc3ccccn3)ncc12 [Example 751, N^1-methyl-4-((1-methyl-1H-benzo[d][1,2,3]triazol-6-yl)ethynyl)-N^6-(pyridin-2-yl)-2,7-naphthyridine-1,6-diamine]
≤ 500 nM	≤ 100 nM	CNc1ncc(C#Cc2ccc(OC)cc2)c2cc(NC(=O)[C@@H]3C[C@@H]3F)ncc12 [Example 752, (1S,2S)-2-fluoro-N-(5-((4-methoxyphenyl)ethynyl)-8-(methylamino)-2,7-naphthyridin-3-yl)cyclopropane-1-carboxamide]
≤ 500 nM	≤ 100 nM	CNc1ncc(C#Cc2ccc(OC)cc2)c2cc(NC(=O)[C@H]3C[C@H]3C)ncc12 [Example 753, (1S,2R)—N-(5-((4-methoxyphenyl)ethynyl)-8-(methylamino)-2,7-naphthyridin-3-yl)-2-methylcyclopropane-1-carboxamide]
≤ 500 nM	≤ 100 nM	CNc1ncc(C#Cc2ccc3nc4n(c3c2)CCOC4)c2cc(NC(=O)C3(F)CC3)ncc12 [Example 758, N-(5-((3,4-dihydro-1H-benzo[4,5]imidazo[2,1-c][1,4]oxazin-7-yl)ethynyl)-8-(methylamino)-2,7-naphthyridin-3-yl)-1-fluorocyclopropane-1-carboxamide]
> 500 nM	≤ 100 nM	CNc1ncc(C#Cc2ccc3nnn(C)c3c2)c2cc(NC(=O)C3(F)CC3)ncc12 [Example 759, 1-fluoro-N-(5-((1-methyl-1H-benzo[d][1,2,3]triazol-6-yl)ethynyl)-8-(methylamino)-2,7-naphthyridin-3-yl)cyclopropane-1-carboxamide]
≤ 500 nM	≤ 100 nM	CNc1ncc(C#Cc2ccc(OC3CN(C(C)=O)C3)cc2)c2cc(NC(=O)C3(F)CC3)ncc12 [Example 760, N-(5-((4-((1-acetylazetidin-3-yl)oxy)phenyl)ethynyl)-8-(methylamino)-2,7-naphthyridin-3-yl)-1-fluorocyclopropane-1-carboxamide]
≤ 500 nM	≤ 100 nM	CCn1c(C)nc2ccc(C#Cc3cnc(NC)c4cnc(NC(=O)C5CC5)cc34)cc21 [Example 761, N-(5-((1-ethyl-2-methyl-1H-benzo[d]imidazol-6-yl)ethynyl)-8-(methylamino)-2,7-naphthyridin-3-yl)cyclopropanecarboxamide]
≤ 500 nM	≤ 100 nM	CCn1c(C)nc2cc(C#Cc3cnc(NC)c4cnc(NC(=O)C5CC5)cc34)ccc21 [Example 762, N-(5-((1-ethyl-2-methyl-1H-benzo[d]imidazol-5-yl)ethynyl)-8-(methylamino)-2,7-naphthyridin-3-yl)cyclopropanecarboxamide]
≤ 500 nM	≤ 100 nM	CNc1ncc(C#Cc2ccc3nc(C)n(C(F)F)c3c2)c2cc(NC(=O)C3CC3)ncc12 [Example 763, N-(5-((1-(difluoromethyl)-2-methyl-1H-benzo[d]imidazol-6-yl)ethynyl)-8-(methylamino)-2,7-naphthyridin-3-yl)cyclopropanecarboxamide]
≤ 500 nM	≤ 100 nM	CNc1ncc(C#Cc2ccc3c(c2)nc(C)n3C(F)F)c2cc(NC(=O)C3CC3)ncc12 [Example 764, A-(5-((1-(difluoromethyl)-2-methyl-1H-benzo[d]imidazol-5-yl)ethynyl)-8-(methylamino)-2,7-naphthyridin-3-yl)cyclopropanecarboxamide]
≤ 500 nM	≤ 100 nM	CNc1ncc(-c2cc3ccc(OC)cn3n2)c2cc(NC(=O)C3CC3)ncc12 [Example 765, N-(5-(6-methoxypyrazolo[1,5-a]pyridin-2-yl)-8-(methylamino)-2,7-naphthyridin-3-yl)cyclopropanecarboxamide]
≤ 500 nM	≤ 100 nM	CNc1ncc(C#Cc2cc3ccc(OC)cn3n2)c2cc(NC(=O)C3CC3)ncc12 [Example 766, N-(5-((6-methoxypyrazolo[1,5-a]pyridin-2-yl)ethynyl)-8-(methylamino)-2,7-naphthyridin-3-yl)cyclopropanecarboxamide]
≤ 500 nM	≤ 100 nM	CNc1ncc(C#Cc2cc3ccc(F)cn3n2)c2cc(NC(=O)C3CC3)ncc12 [Example 767, N-(5-((6-fluoropyrazolo[1,5-a]pyridin-2-yl)ethynyl)-8-(methylamino)-2,7-naphthyridin-3-yl)cyclopropanecarboxamide]
≤ 500 nM	≤ 100 nM	CNc1ncc(C#Cc2ccc(OC[C@@H]3COCCO3)cc2)c2cc(NC(=O)C3CC3)ncc12 [Example 768, (S)—N-(5-((4-((1,4-dioxan-2-yl)methoxy)phenyl)ethynyl)-8-(methylamino)-2,7-naphthyridin-3-yl)cyclopropanecarboxamide]
